How the values were obtained:
[1] = pH of tigecycline dissolved in water prior to lyophilization; format: physicochemical
Protocol: Tigecycline has such a short admixture time and the reconstitution time is essentially zero because in solution, tigecycline oxidation is relatively rapid. Under current manufacturing, storage, and administration conditions, the most prevalent form of degradation is via oxidation. The reason oxidation is the most prevalent form of degradation in previous formulations relates to the chemical structure of tigecycline. […] When tigecycline is dissolved in water prior to lyophilization, the pH is slightly basic (about 7.8). This is higher than the pKa of the phenolic group on tigecycline. Thus, in both water and saline solutions, the phenolic group becomes deprotonated and more susceptible to reaction with oxygen which is why tigecycline compounding and lyophilization occur under a nitrogen blanket. Accordingly, care to avoid unnecessary exposure to oxygen must be taken by hospital staff during reconstitution and dilution.

[2] = system: methicillin-resistant Staphylococcus aureus; details: cited from earlier work
[3] = system: vancomycin-resistant enterococci; details: cited from earlier work
[4] = Epimerization of minocycline versus tigecycline lyophilized at pH about 5.0, HPLC; format: physicochemical; details: lyophilized at pH about 5.0, stored 4 days at 40° C. and 75% relative humidity
Protocol: In another experiment, minocycline was lyophilized at a pH of about 5.0 and the lyophilized cake was stored for 20 days at 40° C. and 75% relative humidity. At the end of the 20 days, the cake was analyzed by HPLC. The epimer of minocycline was measured to be present at a level of 2.65% by mass. By comparison, when tigecycline was lyophilized at a pH of about 5.0 and the sample stored under the same conditions, but for only 4 days followed by HPLC analysis, the tigecycline epimer was measured to be at a level of 5.40%, over twice as much even though tigecycline was only stressed for ⅕^th as long as minocycline. Thus, tigecycline epimerizes much more readily than minocycline, and epimerization is a much more significant problem with tigecycline than it is for minocycline.

[5] = existing composition, 1 mg/mL after dilution; cited from earlier work
[6] = oral; cited from earlier work
[7] = system: penicillin-resistant Streptococcus pneumoniae; details: cited from earlier work
bacteria = details: compared with tigecycline; cited from earlier work

Row | pH of solution in water [1] | level of the tigecycline epimer [4] | SMILES | activity against methicillin-resistant Staphylococcus aureus [2] | activity against vancomycin-resistant enterococci [3] | time within which the diluted solution should be used [5] | bioavailability when given orally [6] | activity against penicillin-resistant Streptococcus pneumoniae [7] | anti-bacterial efficacy (bacteria)
1 | about 7.8 | 5.40% | CN(C)c1cc(NC(=O)CNC(C)(C)C)c(O)c2c1C[C@H]1C[C@H]3[C@H](N(C)C)C(O)=C(C(N)=O)C(=O)[C@@]3(O)C(O)=C1C2=O [Tigecycline] | active | active | ≤ 6 h | generally poor | active | 
2 |  |  | CN(C)c1cc(NC(=O)CNC(C)(C)C)c(O)c2c1C[C@H]1C[C@H]3[C@@H](N(C)C)C(O)=C(C(N)=O)C(=O)[C@@]3(O)C(O)=C1C2=O [tigecycline epimer] |  |  |  |  |  | lacks the anti-bacterial efficacy of tigecycline

— patent US9694078B2, “Tigecycline compositions and methods of preparation” (priority 2005, dated 2017)
